In patent US4343795A, “Biologically active amides” (priority 1977, dated 1982):
Counter-ions that a name gives are not always drawn. Non-standard residues stand in square brackets, D forms with d. Residues, ends and D or L forms follow the SMILES beside them. Phe(4-NO2) = N[C@@H](Cc1ccc([N+](=O)[O-])cc1)C(=O)O

Legend:
rat = assay: Antidiarrhoeal activity in the rat (castor oil); format: in vivo; conditions: for ANTIDARRHOEA ED50 p.o. / ANTIDARRHOEA ED50 s.c.: castor oil 15 minutes after peptide
Experimental: (B) Antidiarrhoeal activity in the rat. In this procedure rats were starved for 24 hours, the peptide then administered either subcutaneously or orally followed after 15 minutes by 1 ml. castor oil per rat given orally.
(§1) From the data obtained the respective ED50 figures were calculated (i.e. the dose required to elicit the appropriate effect in 50% of the animals). N.T.: not tested.

guinea-pigs = assay: Anti-tussive testing, citric acid aerosol in guinea-pigs; format: in vivo; conditions: guinea-pig; for ANTITUSSIVE ED50 p.o.: 20% citric acid aerosol 30 minutes after compound
Experimental: J. Pharmacol., 39, (1970) 225.
(C) For anti-tussive testing, guinea-pigs are subjected to an aerosol containing 20% citric acid, 30 minutes after administration of compound (orally or subcutaneously). The number of coughs during a five minute exposure are counted and meaned for six animals per treatment. The method is that described by Boura, A. L. A., Green, A. F. and Saunders, I. A. Br. J. Pharmac., May 1970, Vol. 39, No. 1, page 225.
as §1

mice [1] = assay: Analgesia in mice in the hot plate test; format: in vivo; conditions: i.c.v.
Experimental: (A) Analgesia in mice in the hot plate test (modification of the method of Eddy, N. B. et al., J. Pharm. Exp. Therap. (1953) 107, 385, the peptide being administered by intracerebroventricular injection).
as §1

mice [2] = assay: Analgesia in mice in the writhing test; format: in vivo; conditions: mouse, p.o.
Source text: As a further example the compounds are effective in reducing acetic acid-induced writhing in mice when tested by a modification of the method of Henderson et. al., J. Pharm. Exp. Therap. 125 (1959), 237; the compounds being administered orally and this reduction in writhing is abolished by naloxone.
(D) Analgesia in mice in the writhing test (modification of the method of Henderson et. al. (J. Pharm. Exp. Therap., 125,(1959),237) the peptide being administered orally.
as §1

[3] = system: laboratory animals including rats and mice; assay: Induction of anaesthesia / abolition of the righting reflex in laboratory animals; conditions: laboratory animals such as mice, up to lethal doses

Compound	ANTIDARRHOEA ED50 p.o. (rat) [mg/kg]	ANTIDARRHOEA ED50 s.c. (rat) [mg/kg]	ANTITUSSIVE (ED50 column): activity at 10 p.o. (guinea-pigs; at 10 mg/kg p.o.)	ANALGESIA: MOUSE HOT PLATE ED50 (mice [1]) [μg/mouse]	ANTITUSSIVE ED50 p.o. (guinea-pigs) [mg/kg]	ANTIDARRHOEA p.o. (ED50 column): activity at 10 (rat; at 10 mg/kg p.o.)	ANALGESIA: WRITHING ED50 (mice [2]) [mg/kg]	Abolition of the righting reflex [3]
CSCC[C@@H](NC(=O)[C@@H](N)Cc1ccc(O)cc1)C(=O)NCC(=O)N[C@@H](Cc1ccccc1)C(=O)N1CCC[C@@H]1C(=O)O [Example 3, H.Tyr.D-Met.Gly.Phe.D-Pro.OH HCl] (H-Y[dM]GF[dP]-OH)	7	2	None	0.005	–	–	–	–
H.Tyr.D-Met(O2).Gly.Phe(4NO2).Pro.NH2 [Example 7]	0.3	0.05	–	0.00008	3	–	–	–
CSCC[C@@H](NC(=O)[C@@H](N)Cc1ccc(O)cc1)C(=O)NCC(=O)N[C@@H](Cc1ccc([N+](=O)[O-])cc1)C(=O)N1CCC[C@H]1C(=O)O [Example 4, H.Tyr.D-Met.Gly.Phe(4NO2).Pro.OH HCl] (H-Y[dM]G[Phe(4-NO2)]P-OH)	–	0.2	–	0.07	–	None	–	–
H.Tyr.D-Met.Gly.Phe(4Cl).Pro.NH2 [Example 9]	10	0.2	–	0.005	–	–	–	–
CSCC[C@@H](NC(=O)[C@@H](N)Cc1ccc(O)cc1)C(=O)NCC(=O)N[C@@H](Cc1ccc([N+](=O)[O-])cc1)C(=O)N1CCC[C@H]1C(N)=O [Example 1, H.Tyr.D-Met.Gly.Phe(4NO2).Pro.NH2] (H-Y[dM]G[Phe(4-NO2)]P-NH2)	2	0.05	–	0.007	0.7	–	35	–
CN1CC[C@]23c4c5ccc(O)c4O[C@H]2[C@@H](O)C=C[C@H]3[C@H]1C5 [morphine]	–	–	–	–	–	–	–	does not abolish the righting reflex
Tyr.D-Met.Gly.Phe(4NO2).homoPro.NH2 [Example 21]	2	0.03	–	0.003	–	–	–	–
